Measurements taken from patent publication US20240208949A1, “COMPOSITIONS, FORMULATIONS, AND METHODS FOR HAIR TREATMENT” (Oddity Labs, LLC, priority 2022, published 2024).
One block for each compound: values may come before it.

Columns and labels:
[1] = tested on: human hair follicle dermal papilla cells (hFDPC); test: Human follicle dermal papilla cell (hFDPC) proliferation, cell viability assay; type: cell-based; settings: hFDPCs from donors 25-83 years old; vs DMSO control
Method: The ability of a compound or salt of the present disclosure to increase proliferation of human hair follicle dermal papilla cells (hFDPC) was tested using a cell viability assay, such as the Promega CellTiter-Glo® Luminescent Cell Viability Assay, MTT cell proliferation assay (ATCC® 30-1010K), or manual cell counting. The compound or salt was added at various concentrations spanning at least a 2-log range. hFDPCs were derived from multiple donors ranging from 25-83 years old and cultured on tissue-treated plastic using predefined growth media supplemented with 6-bromoindirubin-3′-Oxime (BIO), recombinant bone morphogenetic protein-2 (BMP-2), and basic fibroblast growth factor (FGFβ), a combination previously found to preserve in situ dermal papilla gene signatures. […] In TABLE 12, A represents less than 20% increased proliferation of hFDPCs, B represents a 20-40% increase, and C represents more than a 40% increase in the proliferation of hFDPCs.

[2] = Structural stability in solvent mixtures at elevated temperature, LC-UV; type: physicochemical; settings: for Purity (LC-UV) after stirring: 80° C., 2 hrs
Method: Additionally, the ability of a compound or salt of the present disclosure was evaluated at room temperature as well as at 60° C. for varying periods of time (FIG. 1B). The structural stability of compound I-1 was further explored by stirring this compound in 2 different solvent mixtures at elevated temperatures for 2 hours. (TABLE 13). The samples were analyzed by LC-UV after stirring for 2 hrs (FIG. 2).

[3] = Stability on open-air storage, LCMS/HPLC-UV; type: physicochemical
Method: A sample was analyzed for stability using LCMS. In both cases, the peak at 1.25 min was determined to be product I-1, while the impurity at 0.66 min was identified as the hydrolysis product 3-B04, as referenced in Scheme 9b. After analysis, the sample was allowed to stand in open air overnight. […] The purity of the compound in FIG. 7B was analyzed to be 95.3% (254 nm), and in FIG. 7D to be 90.61% (254 nm) after standing overnight in air. […] The compound gradually decomposed into compound 3-B04 and propane sulfonic acid.

[4] = Stability in DMI solution, LCMS/HPLC-UV; type: physicochemical
Method: A sample containing compound I-1 was prepared in 1,3-Dimethyl-2-imidazolidinone (DMI), sealed, and stored at room temperature for 7 days. Another sample containing compound I-1 was prepared in DMI and left open for 8 days. The purity of both samples was assessed using LCMS. […] The purity in FIG. 8B was determined to be 92.9%, and the purity in FIG. 8D was also found to be 92.9%.

[5] = Thermal degradation on distillation, NMR; type: physicochemical; settings: distillation at 185° C. (after 30 minutes at 160° C.)
Method: Thermal degradation of compound I-1 was evaluated at 160° C. and 185° C. Pure compound I-1 (1.2 g), in the form of a brown oil, was subjected to distillation for 30 minutes at 160° C. When no product was observed, distillation was attempted at 185° C., albeit unsuccessfully.

[6] = Stability in example compositions, HPLC-UV; type: physicochemical; settings: compositions of TABLE 2-TABLE 11, 8 months at room temperature
Excerpt: Example of composition (TABLE 2-TABLE 11) preserves the structure and inhibits the hydrolysis of compound I-1, even after storage of 8 months at room temperature.

[7] = molecular target: T1, cytochrome P450 3A4 (CYP3A4) (Homo sapiens, UniProt P08684); test: P450-Glo CYP3A4 Assay and Screening System; type: in vitro ADME; settings: 50 or 5 μM
T1 construct: purchased Promega
Method: A P450-Glo™ CYP3A4 Assay and Screening System (Promega) was employed to assess the inhibitory potential of the example compounds against CYP3A4 at concentrations of either 50 or 5 μM. […] Vehicle represents 0.1% DMSO and […] is a known cytochrome P450 3A4 inhibitor .

[8] = tested on: primary human follicle dermal papilla cells (hFDPCs); test: ROS-Glo assay, intracellular reactive oxygen species; type: cell-based; settings: 50 or 5 μM
Method: A ROS-Glo™ assay (Promega) was employed to assess the production of intracellular reactive oxygen species (ROS) for the example compounds at concentrations of either 50 or 5 μM. […] Vehicle represents 0.1% DMSO and DMNQ represents 2,3-dimethoxy-1,4-naphthalenedione, a known ROS-inducer.

T1 sequence (P08684 whole entry): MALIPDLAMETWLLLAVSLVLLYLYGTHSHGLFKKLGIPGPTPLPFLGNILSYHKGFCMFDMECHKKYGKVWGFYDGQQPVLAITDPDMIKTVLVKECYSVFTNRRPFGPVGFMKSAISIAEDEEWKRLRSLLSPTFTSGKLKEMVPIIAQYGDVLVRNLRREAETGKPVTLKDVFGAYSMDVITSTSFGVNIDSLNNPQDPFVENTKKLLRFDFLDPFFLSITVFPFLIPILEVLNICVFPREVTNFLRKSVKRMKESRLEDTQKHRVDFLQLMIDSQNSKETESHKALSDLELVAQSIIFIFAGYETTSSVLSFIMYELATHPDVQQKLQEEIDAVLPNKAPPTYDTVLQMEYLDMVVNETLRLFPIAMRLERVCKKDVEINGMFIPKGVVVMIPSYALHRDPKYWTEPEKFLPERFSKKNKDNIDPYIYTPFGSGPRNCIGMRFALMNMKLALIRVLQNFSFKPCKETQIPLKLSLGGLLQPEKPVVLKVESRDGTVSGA

Purity (LC-UV) after stirring ([2]; 0.1% (v/v) HCOOH in H2O/0.1% (v/v) HCOOH in MeCN 1:1): 95% | Purity (LC-UV) after stirring ([2]; EtOAc/Heptane 1:1): >99% | Degradation in acidic conditions ([2]; acidic conditions, 2 hrs elevated temperature): minor degradation | Structural stability in organic solvents ([2]; organic solvents used for straight phase column chromatography, 2 hrs elevated temperature): very stable | Purity (254 nm) after standing overnight in air ([3]; 24 hours open-air exposure, room temperature): 90.61% | Purity (254 nm), freshly synthesized material post-workup ([3]; before air exposure (baseline)): 95.3% | Purity (254 nm) in DMI, left open ([4]; 1,3-Dimethyl-2-imidazolidinone (DMI), open air, 8 days): 92.9% | Purity (254 nm) in DMI, sealed ([4]; 1,3-Dimethyl-2-imidazolidinone (DMI), sealed, room temperature, 7 days): 92.9% | Stability in DMI ([4]; even when solution exposed to air): appeared to be stable | Thermal degradation [5]: slightly decomposing | Hydrolysis in example composition on storage [6]: minimal hydrolysis
Compound: CCCS(=O)(=O)n1nc(-c2ccco2)nc1SCCOCCOC [I-1]
Increase Proliferation of hFDPCs (%) [1]: C (C represents more than a 40% increase in the proliferation of hFDPCs) | Stability on storage in open air ([3]; room temperature, decomposes into 3-B04 and propane sulfonic acid): hydrolyzed upon storage in open air at room temperature

Compound: CCSc1nc(-c2ccco2)nn1S(C)(=O)=O [I-2]
Increase Proliferation of hFDPCs (%) [1]: C (C represents more than a 40% increase in the proliferation of hFDPCs)

Compound: COCCSc1nc(-c2ccco2)nn1S(C)(=O)=O [I-3]
Increase Proliferation of hFDPCs (%) [1]: C (C represents more than a 40% increase in the proliferation of hFDPCs)

Compound: CCCS(=O)(=O)n1nc(-c2ccco2)nc1SC [I-4]
Increase Proliferation of hFDPCs (%) [1]: B (B represents a 20-40% increase)

Inhibition of CYP3A4 activity [7]: potent inhibitory potential | Production of intracellular ROS (oxidative stress) [8]: Elevated levels of ROS
Compound: CCCCCS(=O)(=O)n1nc(-c2ccco2)nc1SCCOCCOC [I-5]
Increase Proliferation of hFDPCs (%) [1]: C (C represents more than a 40% increase in the proliferation of hFDPCs)

Compound: CCCCCS(=O)(=O)n1nc(-c2ccco2)nc1SCC [I-6]
Increase Proliferation of hFDPCs (%) [1]: B (B represents a 20-40% increase)

Compound: CSc1nc(-c2ccco2)nn1S(C)(=O)=O [VII-3]
Increase Proliferation of hFDPCs (%) [1]: C (C represents more than a 40% increase in the proliferation of hFDPCs)
